Test results reported in PMC11291634 (Scientific Reports, 2024).
pKd: −log10 of the molar value.

Molecular target: carboxylesterase Ha006a
Assay: ITC with purified protein, one-site model, […] °C
Type: binding, Helicoverpa armigera

For `CCNc1nc(Cl)nc(NC(C)C)n1` [ATZ, atrazine], the pKd was 4.24.
